Experimental data reported in US10369123B2, “Perk activator for the treatment of neurodegenerative diseases” (DEUTSCHES ZENTRUM FÜR NEURODEGENERATIVE ERKRANKUNGEN E.V. …, priority 2014, dated 2019).
Entries after “also recorded” stand apart in the source; their conditions may differ.

Target: T1, PERK (Mus musculus, UniProt Q9Z2B5)
T1 construct: from tissue; host or cells: mouse brain (C57BL/6 wild type; whole brain homogenates / frontal cortex)
T1 sequence (Q9Z2B5 29-1114): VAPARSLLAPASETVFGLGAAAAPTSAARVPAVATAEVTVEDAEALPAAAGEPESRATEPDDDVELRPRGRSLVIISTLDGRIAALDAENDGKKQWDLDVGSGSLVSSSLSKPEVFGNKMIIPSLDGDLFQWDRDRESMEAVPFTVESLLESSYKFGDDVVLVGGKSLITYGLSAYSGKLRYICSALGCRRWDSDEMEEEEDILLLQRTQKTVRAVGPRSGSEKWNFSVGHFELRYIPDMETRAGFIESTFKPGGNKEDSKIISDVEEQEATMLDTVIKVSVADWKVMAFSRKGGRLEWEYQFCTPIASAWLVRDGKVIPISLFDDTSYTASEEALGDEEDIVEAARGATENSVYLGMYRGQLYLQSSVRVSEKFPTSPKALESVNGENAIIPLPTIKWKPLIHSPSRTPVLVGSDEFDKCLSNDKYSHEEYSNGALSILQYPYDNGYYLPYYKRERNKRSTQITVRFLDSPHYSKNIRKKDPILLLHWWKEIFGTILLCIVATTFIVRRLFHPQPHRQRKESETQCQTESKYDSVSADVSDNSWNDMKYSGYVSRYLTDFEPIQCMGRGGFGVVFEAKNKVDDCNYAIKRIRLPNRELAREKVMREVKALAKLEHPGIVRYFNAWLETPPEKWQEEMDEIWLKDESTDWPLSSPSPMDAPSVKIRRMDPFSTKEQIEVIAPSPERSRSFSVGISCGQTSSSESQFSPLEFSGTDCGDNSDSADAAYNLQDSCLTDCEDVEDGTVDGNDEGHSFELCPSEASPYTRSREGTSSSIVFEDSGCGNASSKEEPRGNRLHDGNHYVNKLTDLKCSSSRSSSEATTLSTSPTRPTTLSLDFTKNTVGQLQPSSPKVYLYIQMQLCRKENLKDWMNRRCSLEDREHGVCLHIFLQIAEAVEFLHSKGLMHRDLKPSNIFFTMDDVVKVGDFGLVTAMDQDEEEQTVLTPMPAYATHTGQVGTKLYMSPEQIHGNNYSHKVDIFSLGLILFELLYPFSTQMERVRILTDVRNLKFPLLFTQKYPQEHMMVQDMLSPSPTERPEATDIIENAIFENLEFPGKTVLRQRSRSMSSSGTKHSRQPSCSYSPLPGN
Experiment: Target engagement: Western blots of whole brain homogenates after intraperitoneal administration
Type: in vivo
Method: All animal work was conducted either on CR57BL/6 mice, obtained from Charles River Laboratories, Wilmington, Mass., USA, or on homozygous transgenic mice overexpressing human tau with the P301S mutation on a C57BL/6 background, originally developed by Michel Goedert (Xu et al. 2014), obtained by own breeding. Animals were kept at 23±1° C. under standard 12 h light-dark cycle with free access to food and water. They were handled according to the EU Council Directive 2010/63/EU, the Guide for the Care and Use of Laboratory Animals (National Research Council 2011) and the guidelines of the local institutional committee. The experiments were authorized by the local authority “Regierung von Oberbayern” under application number 55.2-1-54-2532-165-13.
5 mg of the PA compound CCT020312 (EMD Millipore, Billerica, Mass., USA) was first dissolved in 100 μl sterile DMSO (AppliChem, Darmstadt, Germany) and then diluted in sterile saline (B. Braun Medical, Melsungen, Germany) to achieve a stock solution of […].
For the initial short-term single-dose target-engagement trial, wild type mice were treated on three consecutive days with either 2 mg/kg of CCT020312 or saline of the equivalent volume by intraperitoneal injection. They were sacrificed by cervical dislocation four hours after the last injection.
For the short-term ascending-dose target-engagement trial, wild type mice at 15 weeks of age were treated on three consecutive days with once daily intraperitoneal (i.p.) injections of either 1, 2, or 5 mg/kg of CCT020312 or equivalent volumes of saline.
For the long-term single-dose target-engagement trial, wild type mice (n=3) at 9 weeks of age were treated for 6 weeks with once daily i.p. injections of either 2 mg/kg of CCT020312 or equivalent volumes of saline.
Mice were sacrificed by cervical dislocation twelve hours after the last injection. Their brains were frozen on dry ice and stored at −80° C. for Western blot analysis.
Frontal cortex tissue was dissected from the fresh-frozen sample on dry ice and suspended in 750 μl of T-PER Tissue Protein Extraction Reagent (Thermo Fisher Scientific) and 1× cOmplete Protease Inhibitor Cocktail Tablets (Hoffmann-La Roche) and 1× PhosSTOP Phosphatase Inhibitor Cocktail Tablets (Hoffmann-La Roche). The tissue piece was initially ground with a pestle inside a microcentrifuge tube on ice and then homogenized by sonification with Branson Sonifier 450 Analog (Branson, now Thermo Fisher Scientific) with 10×500 ms bursts at intensity level 3 on ice. The solution was then centrifuged at 5000 g for 15 minutes at 4° C. and the supernatant retrieved. Protein concentrations were determined using the BCA kit (Thermo Fisher Scientific) by heating the samples at 60° C. for 30 minutes and measuring the absorption on the NanoDrop 2000c spectrophotometer (Thermo Fisher Scientific).
20 μg of protein (200 μg for pPERK blots) were adjusted to equal concentrations between samples by dilution with M-PER and subsequently heated at 95° C. for 5 minutes with Roti®-Load 1 (Carl Roth). SDS-PAGE was performed using Any kD™ Mini-PROTEAN® TGX™ Gels (BioRad, Berkeley, Calif., USA) in a tris-glycine running buffer. The protein was blotted onto PVDF membrane (BioRad) at 70 V for 65 minutes whilst being cooled with ice. The membrane was blocked with 1× Roti®-Block solution (Carl Roth) for 1 h and then incubated at 4° C. overnight under gentle shaking with the primary antibody (see Table 6) in TBS with 5% BSA (Cell Signaling Technology) and 0.05% TWEEN (Sigma-Aldrich). The membranes were then washed and incubated with the species specific HRP-bound secondary antibody (Vector Laboratories, Burlingame, Calif., USA) at 1:2500 in 1× Roti®-Block solution for 2 h, followed by further washing and exposure to Clarity Western ECL Substrate (BioRad) or, in the case of MC1, to Amersham™ ECL™ Prime (GE Healthcare). […]

[1] = wild type mice, 2 mg/kg i.p. once daily for 6 weeks, 2 mg/kg
[2] = wild type mice, 1, 2 or 5 mg/kg i.p. once daily, three days

Compound: CCN(CC)CCC(=O)N1N=C(c2c(-c3ccccc3)c3cc(Br)ccc3[nH]c2=O)CC1c1ccc(Br)cc1 (stereo not drawn) [CCT020312, 6-bromo-3-[5-(4-bromo-phenyl)-1-(3-diethylamino-propionyl)-4,5-dihydro-1H-pyrazol-3-yl]-4-phenyl-1H-quinolin-2-one]
- brain penetration (mice, intraperitoneal, inferred from brain pEIF2A): enters the brain
- pPERK in the brain (wild type mice, 2 mg/kg i.p. once daily for 6 weeks, vs saline, 2 mg/kg): increase; also recorded: significantly increased
- pNRF2 level in the brain [1]: significant increase; also recorded: significantly increased
- total NRF2 levels in the brain [1]: without significant change; also recorded: no significant upregulation
- total PERK level in the brain [1]: no obvious change; also recorded: no significant upregulation
- pEIF2A in whole brain extracts (wild type mice, 2 mg/kg i.p. once daily, three days, vs saline): marked increase
- pNRF2 level in brain [2]: dose-dependent increase
- total NRF2 in brain [2]: without significant change
- phosphorylated PERK in whole brain extracts (wild type mice, 1, 2 or 5 mg/kg i.p. once daily, three days, vs saline): marked increase; also recorded: significantly increased
